Series [1] in a line: Bioavailability of polymorphs of compound 1. The class given is in vivo. The settings on record: compared to the other polymorphs.
The nature of series [2]: Solubility of polymorphs of compound 1. The class given is physicochemical. The settings on record: compared to the other polymorphs.
The test system of series [3] is interstitial cystitis (IC). The series can be described thus: Example 8: patient with interstitial cystitis symptoms. As to conditions: 1000 mg tablet orally twice daily for at least 2 months; present-tense example. Format: in vivo, human. On the procedure: A person complains of suffering symptoms associated with interstitial cystitis (IC), including gastrointestinal symptoms of diarrhea, bloating and pain. In an effort to alleviate these symptoms, a tablet containing 1000 mg of compound (1) (Form A) is administered orally to this patient twice daily for at least 2 months. […] Similar positive results are observed for other patients complaining of the same or similar symptoms attributable to IC.

Take `CCCc1c(SCCCOc2ccc(C(C)=O)c(OCCCC(=O)O)c2CCC)ccc(C(C)=O)c1O` [Form A, 4-[6-acetyl-3-[3-(4-acetyl-3-hydroxy-2-propylphenylthio)propoxy]-2-propylphenoxy]butyric acid]: the bioavailability entry in series [1] is given as “superior”. In series [2], the solubility result is “superior”. Further, the “symptoms of interstitial cystitis reported by patient” value in series [3] was “positive effects”.

The values are drawn from patent US8026282B2, “Phenoxyalkylcarboxylic acid derivatives in the treatment of irritable bowel syndrome” (Medicinova, Inc., priority 2004, dated 2011).
